The target in series [1] is T1, Solute carrier organic anion transporter family member 1B3 (Homo sapiens, UniProt Q9NPD5).
T1 sequence (Q9NPD5 whole entry): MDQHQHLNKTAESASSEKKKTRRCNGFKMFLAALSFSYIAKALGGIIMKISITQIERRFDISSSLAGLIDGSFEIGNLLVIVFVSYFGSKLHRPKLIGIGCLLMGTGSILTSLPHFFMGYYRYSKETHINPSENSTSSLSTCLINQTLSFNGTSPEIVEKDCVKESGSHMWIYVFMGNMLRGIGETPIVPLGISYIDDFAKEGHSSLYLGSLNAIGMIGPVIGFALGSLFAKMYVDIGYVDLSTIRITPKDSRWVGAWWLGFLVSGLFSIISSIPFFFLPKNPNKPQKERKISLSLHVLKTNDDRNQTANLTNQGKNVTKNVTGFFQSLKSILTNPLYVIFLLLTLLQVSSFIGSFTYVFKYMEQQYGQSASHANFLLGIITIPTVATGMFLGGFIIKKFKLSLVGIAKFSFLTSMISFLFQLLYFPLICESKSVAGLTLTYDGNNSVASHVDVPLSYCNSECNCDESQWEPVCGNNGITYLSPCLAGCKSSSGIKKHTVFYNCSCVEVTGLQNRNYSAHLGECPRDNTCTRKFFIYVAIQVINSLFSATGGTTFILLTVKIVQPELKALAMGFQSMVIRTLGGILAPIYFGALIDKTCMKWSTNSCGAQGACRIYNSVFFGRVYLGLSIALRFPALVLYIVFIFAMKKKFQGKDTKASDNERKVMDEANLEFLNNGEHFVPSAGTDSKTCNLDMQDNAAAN
The note with it: chinese hamster, cho, 10 µM.

In series [2] the target is T2, Solute carrier organic anion transporter family member 1B1 (Homo sapiens, UniProt Q9Y6L6).
T2 sequence (Q9Y6L6 whole entry): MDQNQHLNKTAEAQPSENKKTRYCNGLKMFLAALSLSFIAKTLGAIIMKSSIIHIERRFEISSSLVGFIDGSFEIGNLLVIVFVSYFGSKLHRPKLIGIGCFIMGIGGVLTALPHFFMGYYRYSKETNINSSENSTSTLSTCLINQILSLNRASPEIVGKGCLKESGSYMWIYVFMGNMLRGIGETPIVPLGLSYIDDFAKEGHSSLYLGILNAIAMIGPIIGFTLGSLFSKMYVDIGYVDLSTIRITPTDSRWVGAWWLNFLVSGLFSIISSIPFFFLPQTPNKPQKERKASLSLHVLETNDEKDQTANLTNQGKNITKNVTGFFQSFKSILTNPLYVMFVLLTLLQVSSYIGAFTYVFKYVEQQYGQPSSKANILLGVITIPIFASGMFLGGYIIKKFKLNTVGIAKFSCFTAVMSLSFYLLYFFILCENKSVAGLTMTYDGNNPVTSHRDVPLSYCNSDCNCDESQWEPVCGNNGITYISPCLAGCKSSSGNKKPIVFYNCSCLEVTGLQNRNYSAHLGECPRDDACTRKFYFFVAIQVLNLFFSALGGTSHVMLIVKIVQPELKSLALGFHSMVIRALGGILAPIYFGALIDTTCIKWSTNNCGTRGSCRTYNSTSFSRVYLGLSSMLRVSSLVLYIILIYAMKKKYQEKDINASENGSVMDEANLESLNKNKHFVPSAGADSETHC
The conditions noted are these: chinese hamster, cho, 10 µM.

What is called residual activity is the signal under treatment as a percentage of the control signal.

As to `CCC(=O)NCC[C@@H]1CCc2ccc3c(c21)CCO3` [RAMELTEON], the figures for the residual activity in series [1] and in series [2] were 113.4% and 127.6%, respectively.

Turning to `NC(=O)c1ncn([C@@H]2O[C@H](CO)[C@@H](O)[C@H]2O)c1O` [MIZORIBINE], the residual activity in series [1] is given as 100.4%; in series [2], 113.4%.

Take `C=C[C@@](C)(O)CCC1C(=C)CCC2[C@@](C)(CO)CCC[C@]12C` (stereo partly drawn) [EPI(13)TORULOSOL]: the residual activity is on record as 115.1% in series [1] and 109% in series [2].

Consider `Cl.Cl.Fc1ccc(C(c2ccc(F)cc2)N2CCN(C/C=C/c3ccccc3)CC2)cc1` [FLUNARIZINE HYDROCHLORIDE], for which the residual activity in series [1] turned out to be 102.7%; in series [2], 117.4%.

As to `C[n+]1cccc(C(=O)[O-])c1` [TRIGONELLINE], the results for the residual activity in series [1] and in series [2] were 98.34% and 111.6%, respectively.

On to `CC(=O)NCCCCCC(=O)O` [ACEXAMIC ACID], for which the values for the residual activity in series [1] and in series [2] were 111.3% and 144.2%, respectively.

On to `C=C1C(=O)O[C@@H]2C3O[C@]3(C)CC/C=C(\C)CC[C@@H]12` (some centres not stated), for which the values for the residual activity in series [1] and in series [2] were 114.2% and 140.7%, respectively.

Regarding `CC(=O)O[C@H]1CC[C@@]2(C)[C@@H](CC[C@H]3[C@@H]4CC=C(C(C)=O)[C@@]4(C)C(=O)C[C@@H]32)C1`, the residual activity is listed as 85.5% in series [1] and 81.91% in series [2].

For the compound `C[N+]12CCC(CC1)C(OC(=O)C(O)(c1ccccc1)c1ccccc1)C2.[Br-]` (configuration not stated) [CLIDINIUM BROMIDE], the residual activity was determined as 92.46% in series [1] and 125.2% in series [2].

As for `C[C@@]12C(=O)OC(=O)[C@]1(C)[C@H]1CC[C@@H]2O1` [CANTHARIDIN], the residual activity in series [1] came to 105.7%; in series [2], 102.5%.

With `COc1cc(O)cc(OC)c1OC` [ANTIAROL], the residual activity in series [1] stood at 113%; in series [2], 95.16%.

In the case of `COc1cc2c(cc1-c1coc3c4c(c(OC)cc3c1=O)OC(C)(C)C=C4)OCO2` [ICHTHYNONE], the residual activity in series [1] is given as 118.8%; in series [2], 105.6%.

In the case of `Nc1nc(/C(=C/CC(=O)O)C(=O)N[C@@H]2C(=O)N3C(C(=O)O)=CCS[C@H]23)cs1` [CEFTIBUTEN], the residual activity in series [1] is recorded as 84.47%; in series [2], 90.54%.

As for `Cl.OCCN1CCN(CCCN2c3ccccc3Sc3ccc(C(F)(F)F)cc32)CC1`, the residual activity in series [1] was 93.03%; in series [2], 153.1%.

On to `CC(C)CC(NC(=O)OCC1c2ccccc2-c2ccccc21)C(=O)O` (single isomer, unassigned) [N- (9-FLUORENYLMETHOXYCARBONYL)-L-LEUCINE], for which the residual activity worked out at 48.34% in series [1] and 32.48% in series [2].

As to `CNC(=O)N(C)c1nnc(C(C)(C)C)s1` [TEBUTHIURON], the residual activity in series [1] came out at 111.4%; in series [2] it was 87.52%.

Take `O=C(O)CN(CC(=O)O)Cc1cc2c(cc1O)Oc1cc(O)c(CN(CC(=O)O)CC(=O)O)cc1C21OC(=O)c2ccccc21` [OFTASCEINE]: the values for the residual activity in series [1] and in series [2] were 121.3% and 105.6%, respectively.

Consider `CCCCCCCCCCCCCCCC(=O)OC/C=C(C)/C=C/C=C(C)/C=C/C1=C(C)CCCC1(C)C` [VITAMIN A PALMITATE], for which the figures for the residual activity in series [1] and in series [2] were 85.92% and 77.04%, respectively.

As to `COC(=O)Nc1nc2ccc(C(=O)c3cccs3)cc2[nH]1` [NOCODAZOLE], the residual activity in series [1] was found to be 95.15%; in series [2], 105.9%.

`CC(C)N(C(=O)CCl)c1ccccc1` [PROPACHLOR]: the residual activity in series [1] worked out at 110.5%; in series [2], 110.8%.

In the case of `CO[C@H]1C[C@H](O[C@H]2[C@H](C)[C@@H](O[C@@H]3O[C@H](C)C[C@H](N(C)C)[C@H]3O)[C@@H](C)C[C@@]3(CO3)C(=O)[C@H](C)[C@@H](O)[C@@H](C)[C@@H](C)OC(=O)[C@@H]2C)O[C@@H](C)[C@@H]1O.O=P(O)(O)O` [OLEANDOMYCIN PHOSPHATE], the residual activity in series [1] is recorded as 105.8%; in series [2], 102.8%.

As to `CC1(C)CC2C1CCC1(C)OC2(C)CCC1O` (configuration not stated) [3,7-EPOXYCARYOPHYLLAN-6-OL], the residual activity in series [1] is 80.05%; in series [2] it was 57.88%.

For `CCCCOC(=O)c1ccc(N)cc1` [BUTAMBEN], the figures for the residual activity in series [1] and in series [2] were 124.9% and 159.2%, respectively.

With `CC1(C)C[C@@H]2C(=O)CC[C@H]3O[C@]3(C)CC[C@H]21` [KOBUSONE], the results for the residual activity in series [1] and in series [2] were 84.64% and 64.48%, respectively.

Turning to `CN[C@@H]1[C@H](O)[C@H](NC)[C@H]2O[C@@]3(O)C(=O)C[C@@H](C)O[C@H]3O[C@@H]2[C@H]1O.Cl`, the values for the residual activity in series [1] and in series [2] were 96.23% and 89.17%, respectively.

Turning to `C1CCC(C(CC2CCCCN2)C2CCCCC2)CC1.O=C(O)/C=C\C(=O)O` (configuration not stated) [PERHEXILINE MALEATE], the residual activity in series [1] is 92.29%; in series [2], 68.81%.

For `CC(C)NCC(O)COc1cccc2ccccc12.Cl` (configuration not stated) [PROPRANOLOL HYDROCHLORIDE], the residual activity is 95.98% in series [1] and 59.88% in series [2].

On to `CNC(C)(C)Cc1ccccc1.O=S(=O)(O)O`, for which the residual activity in series [1] is on record as 109.4%; in series [2], 107.5%.

In the case of `O=c1oc2ccccc2c(O)c1Cc1c(O)c2ccccc2oc1=O` [DICUMAROL], the figures for the residual activity in series [1] and in series [2] were 19.32% and 33.08%, respectively.

As to `O=C(O)COc1cc(Cl)c(Cl)cc1Cl` [2,4,5-TRICHLOROPHENOXYACETIC ACID], the results for the residual activity in series [1] and in series [2] were 96.75% and 95.54%, respectively.

In the case of `Cl.c1ccc2c(c1)CN1CCCC1=N2` [DESOXYPEGANINE HYDROCHLORIDE], the residual activity is recorded as 113.9% in series [1] and 132% in series [2].

Turning to `CC1(C)O[C@@H]2C[C@H]3[C@@H]4C[C@H](F)C5=CC(=O)CC[C@]5(C)[C@H]4[C@@H](O)C[C@]3(C)[C@]2(C(=O)CO)O1` [FLURANDRENOLIDE], the residual activity in series [1] was 99.16%; in series [2], 129.2%.

Turning to `COc1cc(-c2coc3cc(O[C@@H]4O[C@H](CO)[C@@H](O)[C@H](O)[C@H]4O)c(OC)c(O)c3c2=O)cc(O)c1OC` [IRIDIN], the residual activity in series [1] stood at 90.79%; in series [2], 114.5%.

As for `C=C[C@H]1CN2CC[C@H]1C[C@H]2[C@H](OC(=O)OCC)c1ccnc2ccc(OC)cc12` [QUININE ETHYLCARBONATE], the residual activity in series [1] is 64.19%; in series [2], 58.74%.

As to `COc1ccc(-c2oc3ccccc3c(=O)c2O)cc1OC` [3-HYDROXY-3',4'-DIMETHOXYFLAVONE], the residual activity is recorded as 106.3% in series [1] and 119.6% in series [2].

As to `CC(C(=O)O)c1ccc2c(c1)[nH]c1ccc(Cl)cc12` (configuration not stated) [CARPROFEN], the residual activity in series [1] was found to be 77.78%; in series [2], 47.72%.

As for `CC[S+]([O-])CCSP(=O)(OC)OC` (configuration not stated) [OXDEMETONMETHYL], the residual activity in series [1] came to 94.08%; in series [2], 116.8%.

Take `CCN(CC)CCNC(=O)c1cc(Cl)c(N)cc1OC.Cl`: the residual activity turned out to be 108.2% in series [1] and 84.82% in series [2].

In the case of `O=c1ccc2ccccc2o1` [COUMARIN], the residual activity in series [1] is on record as 99.05%; in series [2], 116.6%.

For `CC(=O)N[C@H]1[C@H]([C@@H](O)[C@H](O)CO)O[C@@](O)(C(=O)O)C[C@@H]1O`, the results for the residual activity in series [1] and in series [2] were 91.96% and 93.14%, respectively.

Take `COc1cc2c(cc1OC)[C@@H]1C(=O)c3ccc4oc(C(C)C)cc4c3O[C@@H]1CO2` [ISOROTENONE]: the residual activity in series [1] is 87.44%; in series [2], 78.62%.

Values taken from ChEMBL document CHEMBL3039007, “Structure-based identification of OATP1B1/3 inhibitors” (Mol Pharmacol, 2013).
